Measurements: article PMC12428610, “Gas-Binding Studies of Class 1 Sugar Beet Phytoglobin and C86A Mutant Using Isothermal Spectral Shifts in High-Precision Microliter Assay” (International Journal of Molecular Sciences, 2025)
Values joined by “and” are separate entries in the source; they are usually repeats but may differ in a detail not shown here. Identical values can stand only once. Like-named read-outs stand apart in the source and are kept apart here.

Key:
BvPgb 1.2 C86A mutant = assay: Isothermal spectral shift (SpS) gas-binding titration, Monolith X, RED-NHS-labeled protein; set-up: species or system Beta vulgaris
Source text: (§1) The microscale capillary-based technology described here employs isothermal spectral shift (SpS). SpS has previously primarily been used for the determination of protein–protein interactions. In this study, we examine the possibility to extend the use of this technique to also include the binding of small ligands, like gases, to proteins. Ligand binding induces shifts in fluorescence spectra (blue- or red-shifts), which are detectable under isothermal conditions via dual-wavelength fluorescence detection at 650 nm and 670 nm. By plotting fluorescence intensity ratios (670/650 nm) against ligand concentration, the SpS-derived KD can be obtained. Our goal is to determine KD or half maximal effective concentrations (EC50) from ligand titration series. Here, we present a streamlined microscale method employing fluorophore-labeled proteins in gas-saturated microscale capillaries.
(§2) The proteins were thus incubated in solutions enriched with either CO or dissolved NONOate, utilizing a loading buffer (PBS-T20) to maintain gas saturation. Subsequent titrations of gas-enriched solutions yielded clear, reproducible dose–response curves.
(§3) All SpS measurements conducted in this study were performed using the Monolith X instrument (NanoTemper Technologies GmbH, München, Germany), which is equipped with dual-emission detection optics. The MO.Control 2software (NanoTemper Technologies GmbH) was used to calculate fluorescence intensity ratios at 670 and 650 nm. KD values were determined by fitting dose–response curves to a binding model that follows the law of mass action with a 1:1 interaction stoichiometry. This model defines the bound fraction, f(cL), at equilibrium for a given ligand concentration, cL, as given by Equation (1):(1) fcL=cL+cT+KD−cL+cT+KD^2−4cLcT/2cT where cT is the final concentration of target in the assay. The KD is estimated by fitting Equation (1) with the ratiometric expression seen in Equation (2):(2) RcL=Rf+fcL·Rb−Fb/Ff·Rf/1+fcL·Fb/Ff−1 where R(cL) represents the 670 nm/650 nm ratio at a given cL, Rf corresponds to the ratio of the free target, and Rb corresponds to the bound complex. The parameters Fb and Ff, derived from the sigmoidal dose–response curve fitting of the […], adjust for ligand-induced changes in fluorescence intensity at 650 nm.
(§4) Covalent labeling of primary amines was performed using the Protein Labeling Kit RED-NHS 2nd Generation (cat# MO-L011; NanoTemper Technologies GmbH). The assay buffer (PBS-T20) was prepared by supplementing degassed PBS pH 7.4 (cat# 21-040-CV; Corning, NY, USA) with 0.05% Tween20. Purified proteins in Tris were subjected to buffer exchange using the A-column prior to labeling. Briefly, a twofold molar excess of dye was added to the protein prepared to a final concentration of 20 µM. Proteins and dye were incubated for 30 min at room temperature in the dark to avoid photobleaching. Free dye was removed from the labeled protein using the provided B-column. Labeled proteins were kept in the dark and on ice awaiting capillary loading.
(§5) A working 1 mM CO solution was prepared by sparging PBS-T20 with CO, with the concentration approximated through Henry’s law for CO dissolvability in water (kH(CO) ≈ 0.001 mol l^−1 bar^−1). A working 2 mM NO solution (kH(NO) ≈ 0.002 mol l^−1 bar^−1) was prepared by dissolving 25 mg of NONOate (cat# D184-25MG; Merck, Darmstadt, Germany) in 15 mL of PBS-T20 to obtain a 10.75 mM solution, which provides a 10-molar excess of saturation upon decomposition. The NONOate PBS-T20 solution was gently agitated to create a gas-buffer zone to capture decomposing NONOate. Ligand solutions were prepared as 16-point serial dilutions of 10 µL in PCR-strip tubes, before being mixed by means of aspiration with 10 µL of labeled protein and incubated for 5 min. […]

[1] = biological target: BvPgb 1.2 recombinant wild type (rWT); assay: as above; set-up: species or system Beta vulgaris
Source text: as §1, §2, §3, §4, §5

BvPgb 1.2 = assay: Flash photolysis and stopped-flow rapid mixing; KD calculated per Equation (3); assay type: binding, Beta vulgaris; conditions: rWT, calculated per Equation (3) KD,obs=koff(1+KH)/kon from kinetic parameters of ref 30
Source text: Our obtained results are consistent with KD values derivable from earlier work, where kinetic parameters for BvPgb 1.2 were obtained using stopped-flow rapid mixing and flash photolysis, allowing the calculation of a single apparent KD per gas. While not explicitly reported, KD can be estimated from those data using Equation (3):(3) KD,obs=koff(1+KH)/kon where KH is the hexacoordination equilibrium constant and the (1 + KH) factor is used to account for the “penalty” imposed by the hexacoordinated fraction. […] The additional lower KD or EC50 for CO (400–500 nM) observed with our method likely reflects the contribution of the closed protein form, consistent with the 100–1000-fold kinetic differences reported in [27, 28, 29].

[2] = first transition of biphasic dose-response, read-out: EC50, CO binding, first transition
[3] = second transition of biphasic dose-response, read-out: EC50, CO binding, second transition
[4] = PBS-T20 pH 7.4, NO from NONOate, read-out: KD(NO), Isothermal Spectral Shift
[5] = text and figure legend, read-out: KD, NO binding

Compound	KD(CO, closed) /EC50,2, Isothermal Spectral Shift (BvPgb 1.2 C86A mutant; PBS-T20 pH 7.4) [nM]	KD(CO, open) /EC50,1, Isothermal Spectral Shift (BvPgb 1.2 C86A mutant; PBS-T20 pH 7.4) [nM]	EC50 (BvPgb 1.2 C86A mutant; [2]) [nM]	EC50 (BvPgb 1.2 C86A mutant; [3]) [nM]	KD(CO, closed) /EC50,2, Isothermal Spectral Shift ([1]; PBS-T20 pH 7.4) [nM]	KD(CO, open) /EC50,1, Isothermal Spectral Shift ([1]; PBS-T20 pH 7.4) [nM]	EC50 [1, 2] [nM]	EC50 [1, 3] [nM]	Kd (BvPgb 1.2; read-out: KD(CO, open), Flash Photolysis and Stopped-Flow Rapid Mixing) [nM]	Kd (BvPgb 1.2 C86A mutant; [4]) [nM]	Kd (BvPgb 1.2 C86A mutant; [5])	Kd [1, 4] [nM]	Kd [1, 5]	Kd (BvPgb 1.2; read-out: KD(NO), Flash Photolysis and Stopped-Flow Rapid Mixing) [nM]
[C-]#[O+] [CO, carbon monoxide]	500 ± 200	400000 ± 300000	~500	~400000	400 ± 100	700000 ± 200000	~400	~700000	~100000	–	–	–	–	–
nitric oxide [NO]	–	–	–	–	–	–	–	–	–	400 ± 100	400 nM and ~400 nM	1600 ± 100	1600 nM and ~1600 nM	~6400
